Measurements taken from patent US20210253710A1, “DIAGNOSTIC AND THERAPEUTIC METHODS FOR KIDNEY CANCER” (Genentech, Inc., priority 2018, published 2021).
Where two headings read alike, the source gives them in different places.

Key:
[1] = system: patients with inoperable, locally advanced, or metastatic RCC; test: IMmotion151 Phase III study: efficacy of atezolizumab plus bevacizumab versus sunitinib (ITT and PD-L1+ populations); assay type: in vivo, human; conditions: investigator-assessed
Excerpt: The IMmotion151 study (ClinicalTrials.gov Identifier NCT02420821) is a multi-center, randomized, open-label study to evaluate the efficacy and safety of atezolizumab plus bevacizumab versus sunitinib in patients with inoperable, locally advanced, or metastatic RCC who have not received prior systemic active or experimental therapy in either the adjuvant or metastatic setting. The co-primary endpoints of the study were PFS in the PD-L1^+ subgroup, and OS in the ITT population. The exploratory endpoints included biomarker characterization in sarcomatoid tumors and MSKCC risk subgroups, as well as validation of gene signatures from the IMmotion150 study and their association with PFS. […]
IMmotion151 is a multicenter, randomized, open-label, Phase III study evaluating the efficacy and safety of atezolizumab+bevacizumab vs those of sunitinib in patients with previously untreated, inoperable, locally advanced or metastatic RCC (FIG. 1). The co-primary endpoints were (i) investigator (INV)-assessed progression-free survival (PFS) in patients with ≥1% IC expressing PD-L1 (PD-L1+) and (ii) interim overall survival (OS) in the intent-to-treat (ITT) population. […]

[2] = system: patients with untreated metastatic renal cell carcinoma; test: IMmotion151 PFS analysis in biomarker-evaluable subgroups (Angio and Teff gene signatures, MSKCC risk); assay type: in vivo, human
Experimental: The MSKCC (Motzer) criteria used were as follows. The risk factors included 1) a Karnofsky Performance Status (KPS) score <80; 2) a corrected serum calcium >10 mg/dL; 3) an LDH level >1.5 times the upper limit of normal; 4) a hemoglobin level <the lower limit of normal; 5) a time from nephrectomy to systemic therapy of […] (an individual also was scored as having this risk factor if they were initially assessed with metastatic disease or if they have had no nephrectomy). The risk stratification was as follows: individuals having 3 risk factors belong to the poor risk subgroup; individuals having 1 or 2 risk factors belong to the intermediate risk subgroup; and individuals having 0 risk factors belong to the favorable group. For study purposes, systemic therapy was designated as the date of initial study screening. The formula for corrected calcium was Corrected calcium=serum calcium (mg/dL)+0.8 (4 […] serum albumin (g/dL)).
In the phase II IMmotion150 study, gene signatures were identified based on association with clinical outcome. The T-effector (“Teff”) signature included CD8a, IFNG, PRF1, EOMES, and CD274. The Angiogenesis (“Angio”) signature included VEGFA, KDR, ESM1, PECAM1, CD34, and ANGPTL4. […] In the IMmotion151 study, a pre-specified analysis of association with PFS was performed. Unstratified HR and log-rank test were used for PFS analyses in biomarker-evaluable patients. The IMmotion151 transcriptome map confirmed biological subgroups identified in […], including the angiogenesis, immune and antigen presentation (including the Teff signature), and myeloid inflammation subgroups (FIG. 4).

[3] = system: patients with inoperable, locally advanced, or metastatic RCC; conditions: Rini et al. Lancet 2019, cited from earlier work; for Median OS: clinical cutoff Aug. 13, 2018; for Confirmed INV-assessed ORR / Median INV-assessed PFS: clinical cutoff Sep. 29, 2017

CCN(CC)CCNC(=O)c1c(C)[nH]c(/C=C2\C(=O)Nc3ccc(F)cc32)c1C [Sunitinib, N-[2-(Diethylamino)ethyl]-5-[(Z)-(5-fluoro-2-oxo-1,2-dihydro-3H-indol-3-ylidene)methyl]-2,4-dimethyl-1H-pyrrole-3-carboxamide]
median PFS ([1]; ITT population): 8.4 months
median PFS ([1]; PD-L1+ patients): 7.7 months
Teff gene signature and PFS within the treatment arm ([2]; Teff High versus Low within arm, in words): did not differentiate PFS
PFS in the Angio High subgroup versus the Angio Low subgroup ([2]; within sunitinib arm, in words): improved PFS
PFS HR (95% CI) for Angiogenesis (High versus Low) ([2]; within treatment arm): 0.59 (0.47, 0.75)
CR ([3]; ITT): 2%
Ongoing responses ([3]; ITT): 90 n
Median OS ([3]; ITT): 34.9 mo
Confirmed INV-assessed ORR ([3]; ITT): 33%
Median INV-assessed PFS ([3]; ITT): 8.4 mo
CR ([3]; PD-L1 + ITT): 4%
Ongoing responses ([3]; PD-L1 + ITT): 34 n
Median OS ([3]; PD-L1 + ITT): 32.7 mo
Confirmed INV-assessed ORR ([3]; PD-L1 + ITT): 35%
Median INV-assessed PFS ([3]; PD-L1 + ITT): 7.7 mo
